# Laboratory results reported in US7030143B2, “Heterocyclic compounds” (Nippon Shinyaku Co., Ltd., priority 2000, dated 2006).
# Experiments:
# KK-A^y mice = experiment: Effects on carbohydrate and lipid metabolism in KK-A^y mouse; assay type: in vivo; conditions: oral, 4 days; for Percent change of each parameter compared to control group (%): AI: Atherogenic Index = (TC − HDL-C)/HDL-C; for Percent change of each parameter compared to control group (%): BG: plasma glucose level; for Percent change of each parameter compared to control group (%): Ins: plasma insulin level; for Percent change of each parameter compared to control group (%): TG: plasma triglyceride level; for Percent change of each parameter compared to control group (%): HDL-C: serum HDL-C level; for Percent change of each parameter compared to control group (%): (V)LDL-C: sum of VLDL-C and LDL-C level in serum
# Procedure: The experiment was conducted using the compounds described in the Examples as test compounds and Troglitazone (5-[4-(6-hydroxy-2,5,7,8-tetramethylchroman-2-ylmethoxy)benzyl]-2,4-thiazolidinedione) as a control compound.
# Each test compound was orally administered to KK-A^y mice (10 week old, male), NIDDM model animal, for 4 days at a given dosage. On the next day of the last administration, blood was collected from tail end blood vessels under non-fasting conditions to prepare heparinized plasma. Thereafter, blood was collected from an abdominal large vein under pentobarbital anesthesia to prepare serum. The glucose level (BG), triglyceride level (TG) and insulin level (Ins) in plasma were measured using a glucose CII-test Wako (Wako Pure Chemical Industries, Ltd), CLINTECH TG-S (IATORON LABORATORIES, INC.) or triglyceride E-test WAKO (Wako Pure Chemical Industries, Ltd), and a rat insulin measurement kit (Morinaga Biochemistry Research Institute) or REBIS-insulin-mouse-T (Mouse Insulin ELISA (TMB) KIT, Shibayagi Co., Ltd), respectively. Also, the sum of VLDL-C level and LDL-C level in serum (hereinafter, referred to as “(V)LDL-C”), total cholesterol level (TC) and HDL-C level were measured using a high performance liquid chromatography system for the measurement of lipoprotein cholesterol (TOSOH CORPORATION). (V)LDL-C level was measured because VLDL-C and LDL-C cannot be measured separately. Atherogenic Index (AI) was calculated according to the following formula: AI=[(TC level)−(HDL-C level)]/(HDL-C level).
compound,measurement,setting,value
"CC(C)(OCCCCCCCCc1csc(-c2ccccc2)n1)C(=O)O [Example 50, 2-Methyl-2-[8-(2-phenylthiazol-4-yl)octyloxy]propionic acid]",melting point,,64 to 70 °C
"Cc1oc(-c2ccc(F)cc2)nc1CCCCCCOC(C)(C)C(=O)O [Example 40, 2-{6-[2-(4-Fluorophenyl)-5-methyloxazol-4-yl]hexyloxy}-2-methylpropionic acid]",melting point,,64 to 67 °C
"CC(C)(OCCCCCCc1coc(-c2ccccc2)n1)C(=O)O [Example 43, 2-Methyl-2-[6-(2-phenyloxazol-4-yl)hexyloxy]propionic acid]",melting point,,75 to 77 °C
"CC(C)(OCCCCCCc1coc(-c2ccc(F)cc2)n1)C(=O)O [Example 48, 2-{6-[2-(4-Fluorophenyl)oxazol-4-yl]hexyloxy}-2-methylpropionic acid]",melting point,,80 to 83 °C
"Cc1ccc(-c2nc(CCCCCCOC(C)(C)c3nnn[nH]3)c(C)o2)cc1 [Example 86, 5-[1-Methyl-1-{6-[5-methyl-2-(p-tolyl)oxazol-4-yl]hexyloxy}ethyl]tetrazole]",melting point,,87 °C
"CC(C)(OCCCCCCCCc1coc(-c2ccccc2)n1)C(=O)O [Example 45, 2-Methyl-2-[8-(2-phenyloxazol-4-yl)octyloxy]propionic acid]",melting point,,59 to 61 °C
"Cc1oc(-c2ccccc2)nc1CCCCCOC(C)(C)C(=O)O (hydrate or solvate) [Example 34, 2-Methyl-2-[5-(5-methyl-2-phenyloxazol-4-yl)pentyloxy]propionic acid]",melting point,,66 to 68 °C
"CC(C)(OCCCCCCCc1csc(-c2ccccc2)n1)C(=O)O [Example 49, 2-Methyl-2-[7-(2-phenylthiazol-4-yl)heptyloxy]propionic acid]",melting point,,71 to 72 °C
"CC(C)(OCCCCCCCc1coc(-c2ccc(F)cc2)n1)C(=O)O [Example 47, 2-{7-[2-(4-Fluorophenyl)oxazol-4-yl]heptyloxy}-2-methylpropionic acid]",melting point,,67 to 74 °C
"Cc1oc(-c2ccncc2)nc1CCCCCCOC(C)(C)C(=O)O [Example 51, 2-Methyl-2-{6-[5-methyl-2-(4-pyridyl)oxazol-4-yl]hexyloxy}propionic acid]",melting point,,91 to 93 °C
"Cc1ccc(-c2nc(CCCCCCOC(C)(C)C#N)c(C)o2)cc1 [Example 85, 2-Methyl-2-{6-[5-methyl-2-(p-tolyl)oxazol-4-yl]-hexyloxy}propiononitrile]",melting point,,36 °C
"Cc1oc(-c2ccccc2)nc1CCCCCCCOC(C)(C)C(=O)O [Example 36, 2-Methyl-2-[7-(5-methyl-2-phenyloxazol-4-yl)heptyloxy]propionic acid]",melting point,,70 to 71 °C
"Cc1oc(-c2ccc(C(C)(C)C)cc2)nc1CCCCCCOC(C)(C)C(=O)O [Example 41, 2-{6-[2-(4-tert-Butylphenyl)-5-methyloxazol-4-yl]hexyloxy}-2-methylpropionic acid]",melting point,,89 to 91 °C
"CC(C)(OCCCCCCCc1coc(-c2ccc(Cl)cc2)n1)C(=O)O [Example 46, 2-{7-[2-(4-Chlorophenyl)oxazol-4-yl]heptyloxy}-2-methylpropionic acid]",melting point,,91 to 93 °C
"CC(C)(OCCCCCCCc1coc(-c2ccccc2)n1)C(=O)O [Example 44, 2-Methyl-2-[7-(2-phenyloxazol-4-yl)heptyloxy]propionic acid]",melting point,,72 to 75 °C
"Cc1oc(-c2ccccc2)nc1C/C=C/CCCOC(C)(C)C(=O)O [Example 54, Potassium 2-methyl-2-[6-(5-methyl-2-phenyloxazol-4-yl)-(E)-4-hexenyloxy]propionate]",Percent change of each parameter compared to control group (%): AI,KK-A^y mice; dose 1 mg/kg,−83%
same,Percent change of each parameter compared to control group (%): BG,KK-A^y mice; dose 1 mg/kg,−24%
same,Percent change of each parameter compared to control group (%): Ins,KK-A^y mice; dose 1 mg/kg,−14%
same,Percent change of each parameter compared to control group (%): TG,KK-A^y mice; dose 1 mg/kg,−72%
same,Percent change of each parameter compared to control group (%): HDL-C,KK-A^y mice; dose 1 mg/kg,24%
same,Percent change of each parameter compared to control group (%): (V)LDL-C,KK-A^y mice; dose 1 mg/kg,−77%
"CC1(C(=O)O)OCC(CCCCc2coc(-c3ccccc3)n2)CO1 (stereo not shown) [Example 14, 2-Methyl-c-5-[4-(2-phenyloxazol-4-yl)butyl]-1,3-dioxane-r-2-carboxylic acid]",Percent change of each parameter compared to control group (%): AI,KK-A^y mice; dose 1 mg/kg,−45%
same,Percent change of each parameter compared to control group (%): BG,KK-A^y mice; dose 1 mg/kg,−22%
same,Percent change of each parameter compared to control group (%): Ins,KK-A^y mice; dose 1 mg/kg,−67%
same,Percent change of each parameter compared to control group (%): TG,KK-A^y mice; dose 1 mg/kg,−29%
same,Percent change of each parameter compared to control group (%): HDL-C,KK-A^y mice; dose 1 mg/kg,19%
same,Percent change of each parameter compared to control group (%): (V)LDL-C,KK-A^y mice; dose 1 mg/kg,−38%
"CCC1(C(=O)O)OCC(CCCCc2nc(-c3ccccc3)oc2C)CO1 (stereo not shown) [Example 21, 2-Ethyl-c-5-[4-(5-methyl-2-phenyloxazol-4-yl)butyl]-1,3-dioxane-r-2-carboxylic acid]",Percent change of each parameter compared to control group (%): AI,KK-A^y mice; dose 3 mg/kg,−38%
same,Percent change of each parameter compared to control group (%): BG,KK-A^y mice; dose 3 mg/kg,−18%
same,Percent change of each parameter compared to control group (%): Ins,KK-A^y mice; dose 3 mg/kg,−26%
same,Percent change of each parameter compared to control group (%): TG,KK-A^y mice; dose 3 mg/kg,−52%
same,Percent change of each parameter compared to control group (%): HDL-C,KK-A^y mice; dose 3 mg/kg,5%
same,Percent change of each parameter compared to control group (%): (V)LDL-C,KK-A^y mice; dose 3 mg/kg,−26%
"CCc1oc(-c2ccccc2)nc1CCCCCCOC(C)(C)C(=O)O [Example 42, 2-[6-(5-Ethyl-2-phenyloxazol-4-yl)hexyloxy]-2-methylpropionic acid]",melting point,,88.5 to 89 °C
"Cc1ccc(-c2nc(CCCCC3COC(C)(C(=O)O)OC3)c(C)s2)cc1 (stereo not shown) [Example 70, 2-Methyl-c-5-{4-[5-methyl-2-(p-tolyl)thiazol-4-yl]-butyl}-1,3-dioxane-r-2-carboxylic acid]",Percent change of each parameter compared to control group (%): AI,KK-A^y mice; dose 3 mg/kg,−53%
same,Percent change of each parameter compared to control group (%): BG,KK-A^y mice; dose 3 mg/kg,−15%
same,Percent change of each parameter compared to control group (%): Ins,KK-A^y mice; dose 3 mg/kg,5%
same,Percent change of each parameter compared to control group (%): TG,KK-A^y mice; dose 3 mg/kg,−37%
same,Percent change of each parameter compared to control group (%): HDL-C,KK-A^y mice; dose 3 mg/kg,41%
same,Percent change of each parameter compared to control group (%): (V)LDL-C,KK-A^y mice; dose 3 mg/kg,−33%
"Cc1cccc(-c2nc(CCCCC3COC(C)(C(=O)O)OC3)c(C)o2)c1 (stereo not shown) [Example 71, 2-Methyl-c-5-{4-[5-methyl-2-(m-tolyl)oxazol-4-yl]butyl}-1,3-dioxane-r-2-carboxylic acid]",Percent change of each parameter compared to control group (%): AI,KK-A^y mice; dose 3 mg/kg,−90%
same,Percent change of each parameter compared to control group (%): BG,KK-A^y mice; dose 3 mg/kg,−51%
same,Percent change of each parameter compared to control group (%): Ins,KK-A^y mice; dose 3 mg/kg,−61%
same,Percent change of each parameter compared to control group (%): TG,KK-A^y mice; dose 3 mg/kg,−89%
same,Percent change of each parameter compared to control group (%): HDL-C,KK-A^y mice; dose 3 mg/kg,1%
same,Percent change of each parameter compared to control group (%): (V)LDL-C,KK-A^y mice; dose 3 mg/kg,−90%
"Cc1ccc(-c2nc(Cc3cccc(CC4COC(C)(C(=O)O)OC4)c3)c(C)o2)cc1 (stereo not shown) [Example 81, 2-Methyl-t-5-[3-{[5-methyl-2-(p-tolyl)oxazol-4-yl]methyl}benzyl]-1,3-dioxane-r-2-carboxylic acid]",Percent change of each parameter compared to control group (%): AI,KK-A^y mice; dose 1 mg/kg,−83%
same,Percent change of each parameter compared to control group (%): BG,KK-A^y mice; dose 1 mg/kg,−8%
same,Percent change of each parameter compared to control group (%): Ins,KK-A^y mice; dose 1 mg/kg,−21%
same,Percent change of each parameter compared to control group (%): TG,KK-A^y mice; dose 1 mg/kg,−62%
same,Percent change of each parameter compared to control group (%): HDL-C,KK-A^y mice; dose 1 mg/kg,32%
same,Percent change of each parameter compared to control group (%): (V)LDL-C,KK-A^y mice; dose 1 mg/kg,−76%
